We go through 25 compounds from patent US9365583B2, “Substituted pyrazoles and uses thereof” (Genentech, Inc., priority 2013, dated 2016).

The target of this assay is T1, N-terminally GST-tagged DLK (catalytic domain amino acid 1-520) (Homo sapiens, UniProt Q12852).
T1 construct: N-terminally GST-tagged DLK (catalytic domain amino acid 1-520); purchased Carna Bioscience
T1 sequence (Q12852 1-520): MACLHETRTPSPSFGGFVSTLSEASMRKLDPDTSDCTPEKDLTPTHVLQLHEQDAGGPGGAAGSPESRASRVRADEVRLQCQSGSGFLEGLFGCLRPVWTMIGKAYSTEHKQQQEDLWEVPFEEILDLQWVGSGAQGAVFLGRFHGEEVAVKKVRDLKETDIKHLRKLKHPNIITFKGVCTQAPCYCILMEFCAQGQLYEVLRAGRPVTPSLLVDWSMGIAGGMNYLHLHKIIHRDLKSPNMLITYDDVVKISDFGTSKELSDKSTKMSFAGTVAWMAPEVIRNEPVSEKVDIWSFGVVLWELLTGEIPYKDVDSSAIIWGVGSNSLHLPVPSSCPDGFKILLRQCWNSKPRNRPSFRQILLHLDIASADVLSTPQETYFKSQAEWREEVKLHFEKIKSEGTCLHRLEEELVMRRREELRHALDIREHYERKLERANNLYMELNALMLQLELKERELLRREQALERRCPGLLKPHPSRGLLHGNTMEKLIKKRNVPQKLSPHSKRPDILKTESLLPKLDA
Put plainly: DLK TR-FRET inhibition assay. Particulars: 5 nM GST-DLK, 40 nM HIS-MKK4 K131M substrate, 30 μM ATP, 60 minutes at ambient temperature. Format: biochemical. A digest of the protocol: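 Phosphorylated MKK4 was quantified by TR-FRET (Eu-labelled anti-phospho-MKK4, D2 anti-HIS; 3 h, 665 and 615 nm emission) after EDTA quench. Reactions held 5 nM GST-tagged DLK catalytic domain (1-520), 40 nM HIS-MKK4 K131M substrate, 30 μM ATP and compound (3-fold series from 20 uM), 60 min, room temperature, pH 7.5.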
As a reminder, the Ki is the equilibrium dissociation constant of an inhibitor or competing ligand from its target. Regarding `CC(C)n1nc(-c2cnc(N)c(C(F)(F)F)c2)cc1[C@H]1[C@@H]2C[C@H](N3CCCC3=O)C[C@@H]21` [compound 35, 1-((1R,3r,5S,6r)-6-(3-(6-amino-5-(trifluoromethyl)pyridin-3-yl)-1-isopropyl-1H-pyrazol-5-yl)bicyclo[3.1.0]hexan-3-yl)pyrrolidin-2-one], the Ki was found to be 3 nM. This counts as single-digit nanomolar.
The same measure for `Nc1ncc(-c2cc([C@H]3[C@@H]4C[C@H](N5CCOCC5)C[C@@H]43)n(CC3CC3)n2)cc1C(F)(F)F` [compound 273, 5-(1-(cyclopropylmethyl)-5-((1R,3r,5S,6r)-3-morpholinobicyclo [3.1.0]hexan-6-yl)-1H-pyrazol-3-yl)-3-(trifluoromethyl)pyridin-2-amine]: 1.3 nM; for `CC(C)n1nc(-c2cnc(N)c(OC(F)F)c2)cc1[C@H]1[C@@H]2C[C@H](NCC(F)F)C[C@@H]21` [compound 252, 5-(5-((1R,3r,5S,6r)-3-((2,2-difluoro-ethyl)amino)bicyclo[3.1.0]hexan-6-yl)-1-isopropyl-1H-pyrazol-3-yl)-3-(difluoromethoxy) pyridin-2-amine]: 3 nM.
The same measure for “3-(difluoromethoxy)-5-(5- ((1R,3r,5S,6r)-3-(3-fluoroazetidin-1- yl)bicyclo[3.1.0]hexan-6-yl)-1- isopropyl-1H-pyrazol-3-yl) pyridin-2-amine [compound 60]”: 2.26 nM.
The same measure for `CC(C)n1nc(-c2cnc(N)c(OC(F)(F)F)c2)cc1[C@H]1[C@@H]2C[C@@H](N(C)CC3COC3)C[C@@H]21` [compound 18, 5-(1-isopropyl-5-((1R,3s,5S,6r)-3-(methyl(oxetan-3-ylmethyl)amino)bicyclo[3.1.0]hexan-6-yl)-1H-pyrazol-3-yl)-3-(trifluoromethoxy) pyridin-2-amine]: 3.81 nM.
The compound “5-(1-isopropyl-5-((1R,3r,5S,6R)- 3-((R)-2-methylmorpholino) bicyclo[3.1.0]hexan-6-yl)-1H- pyrazol-3-yl)-3-(trifluoromethoxy) pyridin-2-amine [compound 12]” registered a Ki of 1.77 nM.
The same measure for `CC(C)n1nc(-c2cnc(N)c(C(F)(F)F)c2)cc1[C@H]1[C@@H]2C[C@@H](N(C)CC3COC3)C[C@@H]21` [compound 21, 5-(1-isopropyl-5-((1R,3s,5S,6r)-3-(methyl(oxetan-3-ylmethyl)amino)bicyclo[3.1.0]hexan-6-yl)-1H-pyrazol-3-yl)-3-(trifluoromethyl) pyridin-2-amine]: 4.2 nM; for `CC(C)n1nc(-c2cnc(N)c(OC(F)F)c2)cc1[C@H]1[C@@H]2C[C@@H](N3CCOCC3)C[C@@H]21` [compound 137, 3-(difluoromethoxy)-5-(1-isopropyl-5-((1R,3s,5S,6r)-3-morpholino-bicyclo[3.1.0]hexan-6-yl)-1 H-pyrazol-3-yl)pyridin-2-amine]: 3.34 nM; for `CC(C)n1nc(-c2cnc(N)c(OC(F)(F)F)c2)cc1[C@H]1[C@@H]2C[C@@H](NCC(F)F)C[C@@H]21` [compound 288, 5-(5-((1R,3s,5S,6r)-3-((2,2-udifloroethyl)amino)bicyclo[3.1.0]hexan-6-yl)-1-isopropyl-1H-pyrazol-3-yl)-3-(tritluoromethoxy) pyridin-2-amine]: 6.3 nM.
The same measure for `CC(C)n1nc(-c2cnc(N)c(C(F)(F)F)c2)cc1[C@H]1[C@@H]2C[C@@H](N3CCN4CCCC4C3)C[C@@H]21` (single isomer, unassigned) [compound 261]: 1.2 nM.
The same measure for `CC(C)n1nc(-c2cnc(N)c(OC(F)F)c2)cc1[C@H]1[C@@H]2C[C@H](N3CCOCC(F)(F)C3)C[C@@H]21` [compound 181, 5-(5-((1R,3r,5S,6r)-3-(6,6-difluoro-1,4-oxazepan-4-yl)bicyclo [3.1.0]hexan-6-yl)-1-isopropyl-1H-pyrazol-3-yl)-3-(difluoromethoxy) pyridin-2-amine]: 2.4 nM; for `CC(C)n1nc(-c2cnc(N)c(OC(F)F)c2)cc1[C@H]1[C@@H]2C[C@H](N3CCOC[C@H]3C)C[C@@H]21` [compound 81, 3-(difluoromethoxy)-5-(1-isopropyl-5-((1R,3r,5S,6R)-3-((R)-3-methylmorpholino)bicyclo[3.1.0]hexan-6-yl)-1H-pyrazol-3-yl) pyridin-2-amine]: 1.43 nM.
Turning to `CCN1CCN([C@@H]2C[C@@H]3[C@H](C2)[C@H]3c2cc(-c3cnc(N)c(C(F)(F)F)c3)nn2C(C)C)CC1` [compound 17, 5-(5-((1R,3s,5S,6r)-3-(4-ethylpiperazin-1-yl)bicyclo[3.1.0]hexan-6-yl)-1-isopropyl-1H-pyrazol-3-yl)-3-(trifluoromethyl)pyridin-2-amine], the affinity, expressed as Ki, was 2.92 nM. Against the preceding compound, the Ki is about 2-fold higher.
The same measure for `CC(C)n1nc(-c2cnc(N)c(OC(F)(F)F)c2)cc1[C@H]1[C@@H]2C[C@@H](N3CCOC[C@@H]3C)C[C@@H]21` [compound 104, 5-(1-isopropyl-5-((1R,3s,5S,6S)-3-((S)-3-methylmorpholino)bicyclo[3.1.0]hexan-6-yl)-1H-pyrazol-3-yl)-3-(trifluoromethoxy) pyridin-2-amine]: 2.43 nM; for `CC(C)n1nc(-c2cnc(N)c(OC(F)F)c2)cc1[C@H]1[C@@H]2C[C@@H](F)C[C@@H]21` [compound 217, 3-(difluoromethoxy)-5-(5-((1R,3s,5S,6r)-3-fluorobicyclo[3.1.0]hexan-6-yl)-1-isopropyl-1H-pyrazol-3-yl)pyridin-2-amine]: 4.2 nM.
The same measure for `Nc1ncc(-c2cc([C@H]3[C@@H]4C[C@H](N5CCCOCC5)C[C@@H]43)n(CC(F)F)n2)cc1OC(F)F` [compound 233, 5-(5-((1R,3r,5S,6r)-3-(1,4-oxazepan-4-yl)bicyclo[3.1.0]hexan-6-yl)-1-(2,2-difluoroethyl)-1H-pyrazol-3-yl)-3-(difluoromethoxy) pyridin-2-amine]: 1.8 nM; for `CC(C)n1nc(-c2cnc(N)c(OC(F)(F)F)c2)cc1[C@H]1[C@@H]2C[C@@H](N3CCOC[C@H]3C)C[C@@H]21` [compound 13, 5-(1-isopropyl-5-((1R,3s,5S,6R)-3-((R)-3-mcthylmorpholino)bicyclo[3.1.0]hexan-6-yl)-1H-pyrazol-3-yl)-3-(trifluoromethoxy) pyridin-2-amine]: 1.89 nM; for `Nc1ncc(-c2cc([C@H]3[C@@H]4C[C@H](N5CCCOCC5)C[C@@H]43)n(CC(F)F)n2)cc1OC(F)(F)F` [compound 256, 5-(5-((1R,3r,5S,6r)-3-(1,4-oxazepan-4-yl)bicyclo[3.1.0]hexan-6-yl)-1-(2,2-difluoroethyl)-1H-pyrazol-3-yl)-3-(trifluoromethoxy) pyridin-2-amine]: 1.1 nM.
The same measure for `CC(C)n1nc(-c2cnc(N)c(C(F)(F)F)c2)cc1[C@H]1[C@@H]2C[C@@H](N3CCCOCC3)C[C@@H]21` [compound 102, 5-(5-((1R,3s,5S,6r)-3-(1,4-oxazepan-4-yl)bicyclo[3.1.0]hexan-6-yl)-1-isopropyl-1H-pyrazol-3-yl)-3-(trifluoromethyl)pyridin-2-amine]: 0.79 nM.
`COCC1(F)CCN(C2C[C@@H]3C(c4cc(-c5cnc(N)c(OC(F)F)c5)nn4C(C)C)[C@@H]3C2)C1` (single isomer, unassigned) [compound 174] yielded a Ki of 5.2 nM. Compared with the last compound, the Ki is about 6.6-fold higher.
The same measure for `CC(C)n1nc(-c2cnc(N)c(C(F)(F)F)c2)cc1[C@H]1[C@@H]2C[C@@H](N3CCN(C)CC3)C[C@@H]21` [compound 67, 5-(1-isopropyl-5-((1R,3s,5S,6r)-3-(4-methylpiperazin-1-yl)bicyclo [3.1.0]hexan-6-yl)-1H-pyrazol-3-yl)-3-(trifluoromethyl)pyridin-2-amine]: 3.93 nM; for `CC(C)n1nc(-c2cnc(N)c(OC(F)F)c2)cc1[C@H]1[C@@H]2CC(F)(F)C[C@@H]21` [compound 216, 5-(5-((1R,5S,6r)-3,3-difluorobicyclo [3.1.0]hexan-6-yl)-1-isopropyl-1H-pyrazol-3-yl)-3-(difluoro-methoxy)pyridin-2-amine]: 6.6 nM.
The same measure for `CC(C)n1nc(-c2cnc(N)c(OC(F)(F)F)c2)cc1[C@H]1[C@@H]2C[C@@H](N(C)C3COC3)C[C@@H]21` [compound 48, 5-(1-isopropyl-5-((1R,3s,5S,6r)-3-(methyl(oxetan-3-yl)amino)bicyclo[3.1,0]hexan-6-yl)-1H-pyrazol-3-yl)-3-(trifluoromethoxy) pyridin-2-amine]: 3.1 nM; for `CC(C)n1nc(-c2cnc(N)c(OC(F)F)c2)cc1[C@H]1[C@@H]2C[C@@H](O)C[C@@H]21` [compound 6, (1R,3s,5S,6r)-6-(3-(6-amino-5-(difluoromethoxy)pyridin-3-yl)-1-isopropyl-1H-pyrazol-5-yl) bicyclo[3.1.0]hexan-3-ol]: 14.4 nM; for `COCCO[C@H]1C[C@@H]2[C@H](C1)[C@H]2c1cc(-c2cnc(N)c(C(F)(F)F)c2)nn1C(C)C` [compound 272, 5-(1-isopropyl-5-((1R,3r,5S,6r)-3-(2-methoxyethoxy)bicyclo [3.1.0]hexan-6-yl)-1H-pyrazol-3-yl)-3-(trifluoromethyl)pyridin-2-amine]: 5.6 nM.
